Assay results: patent publication US9526782B2, “Pharmaceutical compositions comprising inhibitors of zinc-ZIP8-MTF1 as active ingredients for preventing or treating a joint disease” (GWANGJU INSTITUTE OF SCIENCE AND TECHNOLOGY, priority 2014, dated 2016)
One block for each molecule: values may come before it.

Key:
ZIP8 [1] = molecular target: T1, ZIP8 (Mus musculus, UniProt Q91W10); experiment: Zn^2+ imaging and quantitation with FluoZin-3 AM in primary cultured articular chondrocytes; assay type: cell-based; details: for cellular Zn^2+ level, effect of the substance itself: chondrocytes
T1 construct: host or cells: primary mouse articular chondrocytes infected with Ad-Zip8
T1 sequence (Q91W10 20-462): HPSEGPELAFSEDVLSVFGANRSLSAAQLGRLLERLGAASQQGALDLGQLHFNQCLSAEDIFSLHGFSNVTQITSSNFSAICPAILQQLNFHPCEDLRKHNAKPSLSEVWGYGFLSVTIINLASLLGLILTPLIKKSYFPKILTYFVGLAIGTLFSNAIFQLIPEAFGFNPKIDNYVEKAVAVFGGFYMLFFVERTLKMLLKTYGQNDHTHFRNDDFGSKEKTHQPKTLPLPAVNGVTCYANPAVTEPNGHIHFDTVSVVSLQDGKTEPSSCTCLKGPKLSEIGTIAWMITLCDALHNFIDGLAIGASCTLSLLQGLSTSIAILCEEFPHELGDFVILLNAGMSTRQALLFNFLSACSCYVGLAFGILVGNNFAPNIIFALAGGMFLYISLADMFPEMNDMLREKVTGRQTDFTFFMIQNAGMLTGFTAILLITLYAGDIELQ
Description: Chondrocytes were maintained as a monolayer in Dulbecco's Modified Eagle's Medium (DMEM) supplemented with 10% fetal bovine serum (FBS) and antibiotics, and cells at culture day 2 were treated as indicated in each experiment.
(§1) Adenoviruses expressing mouse Zip8 (Ad-Zip8) and Mtf1 (Ad-Mtf1) were purchased from Vector Biolabs. Mouse articular chondrocytes were cultured for 2 days, infected with empty virus (Ad-C), Ad-Zip8, or Ad-Mtf1 for 2 hours at the indicated multiplicity of infection (MOI), and cultured for 24 hours, followed by further analyses.
Intracellular Zn^2+ was detected using the Zn^2+-selective fluorophore, FluoZin-3 AM (Invitrogen). […] Cells were then washed with Ca^2+- and Mg^2+-free phosphate-buffered saline (PBS) and incubated for an additional 30 minutes at 37° C. Intracellular Zn^2+ images were acquired with a fluorescence microscope, and population-wide fluorescence intensity was measured using a Spectramax Gemini microplate fluorescence reader (Molecular Devices) with excitation at 488 nm, cut-off at 515 nm, and emission at 530 nm.
(§2) Transcript levels were quantified by qRT-PCR. siRNAs targeting Zip8 and Mtf1 were obtained from Dharmacon and transfected using Lipofectamine 2000. Non-targeting (scrambled) siRNA was used as a negative control. Chondrocytes were transfected by incubating for 6 hours with siRNA and Lipofectamine 2000 (Invitrogen), and infected with adenoviruses as described above. Therapeutic antibodies for obstruction of ZIP8 function were purchased from Santa Cruz Biotechnology and MyBioSource Company, and treated in chondrocytes for 24 hours.

ZIP8 [2] = experiment: Expression levels of metal ion transporters in chondrocytes treated with IL1β; assay type: cell-based; details: primary cultures of mouse articular chondrocytes
From the text: FIG. 1a represents mRNA levels of metal ion transporters determined by qRT-PCR in articular chondrocytes treated with IL1β (n=10). Insert is Western blotting of ZIP8 in chondrocytes treated with IL1β.
(§3) Total RNA was extracted from primary cultured chondrocytes using the TRI reagent (Molecular Research Center Inc.). For the isolation of RNA from knee joints, cartilage tissues were scraped with a blade to remove cartilage, and RNA was isolated using the TRI reagent and Purelink RNA mini kit (Ambion). The RNA was reverse transcribed, and the resulting cDNA was amplified by PCR.

[3] = system: matrix-degrading enzymes (MMP3, MMP9, MMP12, MMP13, and ADAMTS5); experiment: mRNA (qRT-PCR) and protein (Western blotting) levels of matrix-degrading enzymes in chondrocytes; assay type: cell-based, mouse
Description: as §1, §3, §2
Total cell lysates were prepared in lysis buffer (150 mM NaCl, 1% NP-40, 50 mM Tris, 5 mM NaF) and used to detect cellular proteins (ZIP8, MTF1, and ERK). Secreted proteins (MMP3, MMP13, and ADAMTS5) were detected after trichloroacetic acid (TCA) precipitation from 900 μl of serum-free conditioned medium. All lysis buffers contained a cocktail of protease inhibitors and phosphatase inhibitors (Roche).

MTF1 = molecular target: T2, MTF1 (Mus musculus, UniProt Q07243); experiment: MTF1 activity reporter gene assay and immunostaining in chondrocytes; assay type: cell-based
T2 construct: endogenous in cells; host or cells: primary mouse articular chondrocytes
Description: The MTF1 reporter gene assay kit was obtained from SABiosciences. Chondrocytes were transfected for 6 hours with a metal response element (MRE) reporter construct and a constitutive Renilla luciferase construct using Lipofectamine 2000 (Invitrogen). Transfected cells were infected with Ad-Mtf1 or Ad-Zip8 for 2 hours or treated with metal ions. Cells were harvested 24 hours after treatment, and firefly luciferase and Renilla luciferase activities were measured using a Dual Luciferase Assay System (Promega). […] MTF1 was detected by immunofluorescence microscopy. Images were acquired using a fluorescence microscope, and at least 200 cells were examined in multiple fields per condition to quantify the percentage of nuclear MTF1-positive cells.

Mt1 and Mt2 = experiment: mRNA and protein levels of MT1 and MT2 in chondrocytes; assay type: cell-based, mouse; details: primary cultured chondrocytes
From the text: as §3

DMM-operated mice = experiment: DMM surgery-induced OA with Zn^2+ diets or intraperitoneal ZnCl2; assay type: in vivo, mouse; details: intraperitoneal, 5 mg/kg body weight twice a week, 6 weeks after surgery
Description: FIG. 6m represents that knee joint sections were prepared from sham- and DMM-operated mice that were fed low-Zn^2+ (<0.5 mg zinc/kg), adequate-Zn^2+ (30 mg zinc/kg), or high-Zn^2+ (300 mg zinc/kg) diets. Cartilage destruction was determined by safranin-O/hematoxylin staining and quantified (n=10).
FIG. 6n represents that sham- and DMM-operated mice were intraperitoneally injected with PBS or ZnCl2 (5 mg/kg body weight) twice a week until they are sacrificed 6 weeks after surgery. Knee joint sections were stained with safranin-O/hematoxylin and cartilage destruction was determined (n=10). […]
(§4) Human OA cartilage was frozen, sectioned at 10-μm thickness, and fixed in paraformaldehyde. Sulfate proteoglycan was detected with alcian blue staining. Human ZIP8 was detected by immunostaining. […] Sections were deparaffinized in xylene, hydrated with graded ethanol, and stained with safranin-O. Cartilage destruction was scored by two blinded observers using the OARSI grading system (Glasson et al., 2010). Synovitis was determined by safranin-O and hematoxylin staining, and synovial inflammation (grade 0-3) was scored as described previously (Yang et al., 2010). Osteophyte development was identified by safranin-O staining, and osteophyte maturity was quantified as described previously (Oh et al., 2012). […]

mouse knee joints = experiment: Experimental OA induced by IA injection of adenovirus into mouse knee joints, histology and immunostaining; assay type: in vivo; details: 0.1 mg/kg body weight
From the text: Male mice (C57BL/6, Col2a1-Zip8 TG, Zip8^+/−, Zip8^fl/fl; Zip8^fl/fl; Col2a1-Cre, Mtf1^+/−, Mtf1^fl/fl, Mtf1^fl/fl; Col2a1-Cre, Mt1^−/−; Mt2^−/−) were used for experimental OA studies. Chondrocyte-specific Zip8 TG (Col2a1-Zip8) mice were generated using the Col2a1 promoter and enhancer. Zip8^+/− mice were obtained from The European Mouse Mutant Archive. The Mtf1 mouse strain used for this research project was created from an ES cell clone generated by the Wellcome Trust Sanger Institute and developed into mice by the KOMP Repository and the Mouse Biology Program at the University of California, Davis. Zip8^+/− and Mtf1^+/− mice were backcrossed with Actb-Flp1 TG mice (The Jackson Laboratory) to generate Zip8fl/fl and Mtf1fl/fl mice, respectively. These mice were then backcrossed with Col2a1-Cre TG mice (The Jackson Laboratory) to generate chondrocyte-specific CKO mice (Zip8^fl/fl; Col2a1-Cre and Mtf1^fl/fl; Col2a1-Cre). Mt1^−/−, Mt2^−/− double-KO mice were obtained from The Jackson Laboratory. […]
as §4, with “2012). Subchondral bone sclerosis was determined by measuring the thickness of the subchondral bone plate (Zhen et al., 2013). Antibodies used for immunostaining of cartilage sections are as follows: ZIP8 and MTF1 in human cartilage tissue sections were detected by antibodies obtained from Proteintech (20459-1-AP) and Novus (NBP1-86380), respectively.” for “2012).”

[4] = Ad-Zip8 chondrocytes, TPEN 1 μM pre-incubated with 1 μM metal ion

T2 sequence (Q07243 whole entry): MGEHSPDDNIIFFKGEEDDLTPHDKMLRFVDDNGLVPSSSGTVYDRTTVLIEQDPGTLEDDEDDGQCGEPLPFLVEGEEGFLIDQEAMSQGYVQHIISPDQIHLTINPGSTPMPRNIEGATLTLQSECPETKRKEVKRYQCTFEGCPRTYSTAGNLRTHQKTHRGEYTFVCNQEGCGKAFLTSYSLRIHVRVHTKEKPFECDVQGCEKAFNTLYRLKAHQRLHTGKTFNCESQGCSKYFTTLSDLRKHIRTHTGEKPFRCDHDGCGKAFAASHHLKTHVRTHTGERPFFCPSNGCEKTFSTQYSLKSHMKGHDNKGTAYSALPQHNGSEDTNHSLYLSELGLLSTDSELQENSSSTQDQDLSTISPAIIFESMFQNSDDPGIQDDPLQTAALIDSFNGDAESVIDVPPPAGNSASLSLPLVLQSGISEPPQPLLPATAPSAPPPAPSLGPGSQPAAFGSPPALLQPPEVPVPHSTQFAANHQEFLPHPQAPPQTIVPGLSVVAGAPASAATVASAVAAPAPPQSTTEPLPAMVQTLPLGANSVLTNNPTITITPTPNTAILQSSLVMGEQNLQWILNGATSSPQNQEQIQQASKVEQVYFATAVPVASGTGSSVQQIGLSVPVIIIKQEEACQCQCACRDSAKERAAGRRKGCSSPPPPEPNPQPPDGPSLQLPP

- cellular Zn^2+ level, effect of the substance itself (ZIP8 [1]): caused an influx of Zn^2+
- cellular Zn^2+ level, effect of the substance itself (ZIP8 [1]; listed as IL-1): increases
Molecule: IL1β: proinflammatory cytokine that promotes catabolism in arthritic cartilage
- ZIP8 expression levels (ZIP8 [2]): markedly increased

Molecule: [Cl-].[Cl-].[Zn+2] [ZnCl2]
- inhibitory effects of TPEN on the ZIP8-mediated expression of matrix-degrading enzymes, effect of pre-incubation of TPEN with the metal salt [3, 4]: effectively abolished
- expression of matrix-degrading enzymes caused by the substance itself ([3]; chondrocytes, metal salts 100 μM (CdCl2 1 μM)): up-regulated
- inhibitory effects of TPEN on MTF1 transcriptional activity, effect of pre-incubation of TPEN with the metal salt (MTF1; [4]): abolished
- nuclear localization of MTF1 (MTF1; chondrocytes): most effective
- MTF1 transcriptional activity, effect of the substance itself (MTF1; chondrocytes, reporter gene assay): most effective
- expression of Mt1 and Mt2 (Mt1 and Mt2): significantly increased
- DMM-induced cartilage destruction (DMM-operated mice): augmented

- MTF1 transcriptional activity in Ad-Zip8-infected chondrocytes, effect of the test agent (MTF1; 800 MOI of Ad-Zip8, TPEN 1 μM): inhibitory effects
- ZIP8-mediated increase in Zn^2+ influx (ZIP8 [1]; chondrocytes infected with Ad-Zip8, with the test agent): abolished
- IL1β-caused influx of Zn^2+ in chondrocytes, effect of the test agent (ZIP8 [1]; chondrocytes treated with IL1β): blocked
Molecule: c1ccc(CN(CCN(Cc2ccccn2)Cc2ccccn2)Cc2ccccn2)nc1 [TPEN, N,N,N′,N′-tetrakis (2-pyridylmethyl)ethylenediamine]
- Ad-Mtf1-induced upregulation of matrix-degrading enzymes, effect of the test agent ([3]; chondrocytes infected with Ad-Mtf1): abolished
- Ad-Zip8 (ZIP8)-induced upregulation of matrix-degrading enzymes, effect of the test agent ([3]; chondrocytes infected with Ad-Zip8): blocked
- upregulation of MMP3, MMP13, and ADAMTS5 by IL1β, effect of the test agent ([3]; chondrocytes treated with IL1β): abolished
- Ad-Zip8-induced MMP expression, effect of co-injection (mouse knee joints): significantly blocked
- Ad-Zip8-induced cartilage destruction, effect of co-injection (mouse knee joints): significantly blocked
- Ad-Zip8-induced synovitis, effect of co-injection (mouse knee joints): significantly blocked
